# Test results: paper PMC7815789, “Degradation of complex arabinoxylans by human colonic Bacteroidetes” (Nature Communications, 2021)
# Experiments:
# Assay type in all cases: biochemical
# [1] = target: T1, BACINT_01042-GH3 (Bi1042-GH3) (Bacteroides intestinalis, UniProt B3C978); test: xylose release, HPAEC-PAD; conditions: pH […] °C, […] h, […] enzyme
# T1 sequence (B3C978 19-862): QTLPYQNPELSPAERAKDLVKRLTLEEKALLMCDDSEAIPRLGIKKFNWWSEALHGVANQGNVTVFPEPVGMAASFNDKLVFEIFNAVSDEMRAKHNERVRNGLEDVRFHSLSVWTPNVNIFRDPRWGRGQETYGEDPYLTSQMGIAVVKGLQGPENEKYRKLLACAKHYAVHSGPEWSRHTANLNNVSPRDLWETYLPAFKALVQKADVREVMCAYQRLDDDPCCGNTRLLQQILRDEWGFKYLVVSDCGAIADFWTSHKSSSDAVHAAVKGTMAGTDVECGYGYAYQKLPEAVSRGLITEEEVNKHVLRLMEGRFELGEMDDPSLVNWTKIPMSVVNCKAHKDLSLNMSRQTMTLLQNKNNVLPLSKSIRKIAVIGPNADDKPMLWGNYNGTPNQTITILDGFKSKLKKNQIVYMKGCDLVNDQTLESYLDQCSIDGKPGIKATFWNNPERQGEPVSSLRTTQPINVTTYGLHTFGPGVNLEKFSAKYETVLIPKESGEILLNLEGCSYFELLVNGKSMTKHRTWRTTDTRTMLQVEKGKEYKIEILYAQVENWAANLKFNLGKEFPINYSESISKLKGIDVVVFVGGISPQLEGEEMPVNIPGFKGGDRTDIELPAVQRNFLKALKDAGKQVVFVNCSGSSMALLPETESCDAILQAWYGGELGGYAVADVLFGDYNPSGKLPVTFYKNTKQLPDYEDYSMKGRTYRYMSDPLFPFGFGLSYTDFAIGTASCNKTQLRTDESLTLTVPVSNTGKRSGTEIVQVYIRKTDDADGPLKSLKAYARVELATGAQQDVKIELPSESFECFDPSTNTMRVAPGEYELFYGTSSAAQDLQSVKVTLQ
# [2] = target: T2, BACINT_01038-CE6/CE1 (Bi1038-CE6/CE1) (Bacteroides intestinalis, UniProt B3C974); test: ferulic acid release, HPLC-DAD; conditions: […] substrate, […] enzyme, […] sodium citrate, […] NaCl, pH […] °C, […] min
# T2 construct: two modules (CE6, CE1)
# T2 sequence (B3C974 59-680): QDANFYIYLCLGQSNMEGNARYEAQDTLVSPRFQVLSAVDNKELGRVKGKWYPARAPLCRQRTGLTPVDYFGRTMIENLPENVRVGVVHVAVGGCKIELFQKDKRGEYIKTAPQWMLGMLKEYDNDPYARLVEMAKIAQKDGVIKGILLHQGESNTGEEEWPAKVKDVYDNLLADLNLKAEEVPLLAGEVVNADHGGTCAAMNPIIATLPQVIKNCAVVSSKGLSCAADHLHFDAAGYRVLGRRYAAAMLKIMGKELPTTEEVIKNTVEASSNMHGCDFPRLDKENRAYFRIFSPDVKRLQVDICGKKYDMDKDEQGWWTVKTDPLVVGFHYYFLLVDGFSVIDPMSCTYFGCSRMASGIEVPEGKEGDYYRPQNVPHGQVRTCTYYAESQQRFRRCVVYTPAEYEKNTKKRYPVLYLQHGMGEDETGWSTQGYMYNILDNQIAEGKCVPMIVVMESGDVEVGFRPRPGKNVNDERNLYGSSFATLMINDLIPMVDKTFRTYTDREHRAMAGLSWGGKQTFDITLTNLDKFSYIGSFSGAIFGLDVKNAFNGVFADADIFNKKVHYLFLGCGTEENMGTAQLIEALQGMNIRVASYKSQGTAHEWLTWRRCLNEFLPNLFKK
# [3] = target: T3, BACINT_01033-CE1 (Bi1033-CE1) (Bacteroides intestinalis, UniProt B3C969); test: ferulic acid release, HPLC-DAD; conditions: 200 uM substrate, 50 nM enzyme, 50 mM sodium citrate, 150 mM NaCl, pH 6.5, 37 °C, 10 min
# T3 construct: dimer; N-terminal Ig-like domain, esterase domain residues 126-383
# T3 sequence (B3C969 24-387): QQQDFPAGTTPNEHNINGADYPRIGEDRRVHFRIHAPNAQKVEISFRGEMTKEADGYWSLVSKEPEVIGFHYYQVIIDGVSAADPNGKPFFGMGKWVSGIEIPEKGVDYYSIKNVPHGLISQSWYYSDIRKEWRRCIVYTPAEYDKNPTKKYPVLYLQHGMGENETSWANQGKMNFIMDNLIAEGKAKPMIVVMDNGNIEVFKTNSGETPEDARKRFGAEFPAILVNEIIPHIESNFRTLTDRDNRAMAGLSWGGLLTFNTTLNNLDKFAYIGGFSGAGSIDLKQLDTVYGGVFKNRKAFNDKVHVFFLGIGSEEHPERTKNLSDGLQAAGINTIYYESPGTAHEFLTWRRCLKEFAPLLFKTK
# [4] = target: T2, BACINT_01038-CE6/CE1 (Bi1038-CE6/CE1); test: pNP release at […] nm; conditions: […] substrate, […] enzyme, […] MOPS pH […] °C
# [5] = target: T4, BACINT_01039-CE1 (Bi1039-CE1) (Bacteroides intestinalis, UniProt B3C975); test: pNP release at […] nm; conditions: 1 mM substrate, 50 nM enzyme, 0.1 M MOPS pH 7.5, 37 °C
# T4 construct: dimer; crystal structure residues 25-382, esterase domain 126-382
# T4 sequence (B3C975 25-382): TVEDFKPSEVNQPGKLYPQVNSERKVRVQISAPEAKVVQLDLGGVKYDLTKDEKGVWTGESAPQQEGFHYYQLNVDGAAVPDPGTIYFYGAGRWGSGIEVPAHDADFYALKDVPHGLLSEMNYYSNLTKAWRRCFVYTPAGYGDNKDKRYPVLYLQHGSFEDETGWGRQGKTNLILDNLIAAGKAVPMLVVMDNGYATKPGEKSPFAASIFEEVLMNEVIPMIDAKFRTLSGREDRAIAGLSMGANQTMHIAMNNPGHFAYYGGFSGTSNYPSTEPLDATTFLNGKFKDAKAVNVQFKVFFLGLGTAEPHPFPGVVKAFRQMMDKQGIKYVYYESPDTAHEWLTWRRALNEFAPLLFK
compound,measurement,setting,value
"OC1OC[C@@H](O[C@@H]2OC[C@@H](O[C@@H]3OC[C@@H](O)[C@H](O)[C@H]3O)[C@H](O)[C@H]2O)[C@H](O)[C@H]1O (stereo partly drawn) [X3, xylotriose]","xylose release, HPAEC-PAD",[1],Bi1042-GH3 cleaves xylo-oligosaccharides to xylose or X1
"COc1cc(/C=C/C(=O)OC[C@@H]2O[C@@H](O[C@@H]3[C@@H](O)[C@H](O[C@@H]4COC(O)[C@H](O)[C@H]4O)OC[C@H]3O)[C@H](O)[C@H]2O)ccc1O (stereo partly drawn) [FAXX, feruloylated trisaccharide (FAXX)]","ferulic acid release, HPLC-DAD",[2],showed some activity on both FA and FAXX
"COc1cc(/C=C/C(=O)OC[C@@H]2OC(O)[C@H](O)[C@H]2O)ccc1O (stereo partly drawn) [FA, feruloylated monosaccharide (FA)]","ferulic acid release, HPLC-DAD",[3],exhibits low ferulic acid cleavage activity on feruloylated monosaccharide (FA)
"OC1OC[C@@H](O[C@@H]2OC[C@@H](O)[C@H](O)[C@H]2O)[C@H](O)[C@H]1O (stereo partly drawn) [X2, xylobiose]","xylose release, HPAEC-PAD",[1],Bi1042-GH3 cleaves xylo-oligosaccharides to xylose or X1
CC(=O)Oc1ccc([N+](=O)[O-])cc1 [pNP acetate],pNP release at 400 nm,[4],"activities on the synthetic substrates were from Bi1040-FAE and Bi1038-CE6/CE1, respectively"
same,pNP release at 400 nm,[5],"activity of the wild-type Bi1039-CE1, observed with pNP acetate as the substrate"
